Results published in US20120095055A1, “HEXAHYDROCYCLOPENTYL[f]INDAZOLE 5-HYDROXYMETHYL ETHANOLS AND DERIVATIVES THEREOF AS SELECTIVE GLUCOCORTICOID RECEPTOR MODULATORS” (Merck Sharp & Dohme, Corp., priority 2009, published 2012).

What follows are molecules tested against T1, glucocorticoid receptor (GR) (Homo sapiens, UniProt P04150) (assay: GR Ligand Binding Assay (3H-dexamethasone displacement, HeLa cell lysate)). Details: 3H-DEX trace, DEX as reference, read-out: GR BIND Ki.
T1 construct: endogenous in cells; host or cells: HeLa (ATCC) cell lysate supernatant
T1 sequence (P04150 1-777): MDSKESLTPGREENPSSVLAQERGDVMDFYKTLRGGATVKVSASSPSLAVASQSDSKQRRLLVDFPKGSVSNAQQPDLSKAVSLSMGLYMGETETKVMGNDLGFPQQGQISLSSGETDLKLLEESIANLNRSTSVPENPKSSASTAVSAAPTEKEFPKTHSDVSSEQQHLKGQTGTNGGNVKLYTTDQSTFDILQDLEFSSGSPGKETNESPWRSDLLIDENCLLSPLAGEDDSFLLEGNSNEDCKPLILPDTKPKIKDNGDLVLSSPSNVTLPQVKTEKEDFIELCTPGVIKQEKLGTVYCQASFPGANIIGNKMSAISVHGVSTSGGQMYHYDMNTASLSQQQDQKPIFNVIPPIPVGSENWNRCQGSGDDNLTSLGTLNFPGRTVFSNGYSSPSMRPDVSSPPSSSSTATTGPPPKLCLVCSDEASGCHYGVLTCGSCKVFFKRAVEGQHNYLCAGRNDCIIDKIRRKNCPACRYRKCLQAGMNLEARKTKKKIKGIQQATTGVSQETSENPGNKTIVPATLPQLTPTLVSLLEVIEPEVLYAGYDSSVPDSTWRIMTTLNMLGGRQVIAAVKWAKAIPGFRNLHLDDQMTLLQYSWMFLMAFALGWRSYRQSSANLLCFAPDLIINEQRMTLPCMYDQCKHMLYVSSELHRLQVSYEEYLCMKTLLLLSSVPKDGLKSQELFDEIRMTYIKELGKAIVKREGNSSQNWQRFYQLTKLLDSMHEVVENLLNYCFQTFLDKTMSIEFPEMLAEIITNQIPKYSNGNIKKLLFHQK
Experimental: Binding Buffer: TEGM (10 mM Tris-HCl, 1 mM EDTA, 10% glycerol, 1 mM beta-mecaptoethanol, 10 mM Sodium Molybdate, pH 7.2)
Dexmethasone-methyl-^3H, (DEX*); (Amersham cat# TRK645) Dexamethasone(DEX) (Sigma, cat# D1756):
Cells (Hall R. E., et al., European Journal of Cancer, 30A: 484-490 (1994)) HeLa (ATCC) cultured in RPMI 1640 (Gibco 11835-055) containing 20 mM Hepes, 4 mM L-glu, 10 ug/ml of human insulin (Sigma, I-0259), 10% FBS and 20 ug/ml of Gentamicin (Gibco#15710-072) are rinsed twice in PBS. Phenol red-free Trypsin-EDTA is diluted in the same PBS 1:10. The cell layers are rinsed with 1× Trypsin, extra Trypsin is poured out, and the cell layers are incubated at 37° C. for ˜2 min. The flask is tapped and checked for signs of cell detachment. Once the cells begin to slide off the flask, the complete media is added. The cells are counted at this point, then diluted to the appropriate concentration and split into flasks or dishes for further culturing (Usually 1:3 to 1:6 dilution).
When the cells are 70 to 85% confluent, they are detached as described above, and collected by centrifuging at 1000 g for 10 minutes at 4° C. The cell pellet is washed twice with TEGM (10 mM Tris-HCl, 1 mM EDTA, 10% glycerol, 1 mM beta-mercaptoethanol, 10 mM Sodium Molybdate, pH 7.2). After the final wash, the cells are resuspended in TEGM at a concentration of 10^7 cells/mL. The cell suspension is snap frozen in liquid nitrogen or ethanol/dry ice bath and transferred to −80° C. freezer on dry ice. Before setting up the binding assay, the frozen samples are left on ice-water to just thaw (˜1 hr). Then the samples are centrifuged at 12,500 g to 20,000 g for 30 min at 4° C. The supernatant is used to set-up assay right away. If using 50 μL of supernatant, the test compound can be prepared in 50 μL of the TEGM buffer.
1×TEGM buffer is prepared, and the isotope-containing assay mixture is prepared in the following order: EtOH (2% final concentration in reaction), ^3H-DEX (Amersham Biosciences) and 1×TEGM. [e.g. For 100 samples, 200 μL (100×2) of EtOH+4.25 μL of 1:10 ^3H—Dex stock+2300 μL (100×23) 1×TEGM]. The compound is serially diluted, e.g., if starting final conc. is 1 μM, and the compound is in 25 μL of solution, for duplicate samples, 75 μL of 4×1 μM solution is made and 3 μL of 100 μM is added to 72 μL of buffer, and 1:5 serial dilution.
25 μL, of 3H-DEX (6 nM) trace and 25 μL compound solution are first mixed together, followed by addition of 50 μL receptor solution. The reaction is gently mixed, spun briefly at about 200 rpm and incubated at 4° C. overnight. 100 μL of 50% HAP slurry is prepared and added to the incubated reaction which is then vortexed and incubated on ice for 5 to 10 minutes. The reaction mixture is vortexed twice more to resuspend HAP while incubating reaction. The samples in 96-well format are then washed in wash buffer using The FilterMate™ Universal Harvester plate washer (Packard). The washing process transfers HAP pellet containing ligand-bound expressed receptor to Unifilter-96 GF/B filter plate (Packard). The HAP pellet on the filter plate is incubated with 50 μL of MICROSCINT (Packard) scintillint for 30 minutes before being counted on the TopCount microscintillation counter (Packard). IC50s are calculated using DEX as a reference.

SMILES	Ki [nM]
C[C@]12Cc3cnn(-c4ccc(F)cc4)c3C=C1CC[C@@]2(CO)CC(O)c1ccc(F)cn1 (single isomer, unassigned) [Example 22a]	2.3
C[C@]12Cc3cnn(-c4ccc(F)cc4)c3C=C1CC[C@@]2(CO)CC(O)c1ccc(F)cn1 (single isomer, unassigned) [Example 22b]	5.1
C[C@]12Cc3cnn(-c4ccccc4)c3C=C1CC[C@@]2(CO)CC(O)c1ccccn1 (single isomer, unassigned) [Example 23a]	7.7
C[C@]12Cc3cnn(-c4ccccc4)c3C=C1CC[C@@]2(CO)CC(O)c1ccccn1 (single isomer, unassigned) [Example 23b]	3.3
COc1ccc(C(O)C[C@]2(CO)CCC3=Cc4c(cnn4-c4ccc(F)cc4)C[C@@]32C)nc1 (single isomer, unassigned) [Example 24a]	3.1
COc1ccc(C(O)C[C@]2(CO)CCC3=Cc4c(cnn4-c4ccc(F)cc4)C[C@@]32C)nc1 (single isomer, unassigned) [Example 24b]	7.5
CC(O)(C[C@]1(CO)CCC2=Cc3c(cnn3-c3ccc(F)cc3)C[C@@]21C)c1cccnc1 (single isomer, unassigned) [Example 25a]	26.3
CC(O)(C[C@]1(CO)CCC2=Cc3c(cnn3-c3ccc(F)cc3)C[C@@]21C)c1cccnc1 (single isomer, unassigned) [Example 25b]	21.9
COc1cccnc1C(O)C[C@]1(CO)CCC2=Cc3c(cnn3-c3cccc(F)c3)C[C@@]21C (single isomer, unassigned) [Example 26a]	8.6
COc1cccnc1C(O)C[C@]1(CO)CCC2=Cc3c(cnn3-c3cccc(F)c3)C[C@@]21C (single isomer, unassigned) [Example 26b]	35.5
C[C@]12Cc3cnn(-c4ccc(F)cc4)c3C=C1CC[C@@]2(CO)CC(O)c1ccccc1F (stereo partly drawn) [Example 4, 1-(2-fluorophenyl)-2-[(4αS,5R)-1-(4-fluorophenyl)-5-(hydroxymethyl)-4α-methyl-1,4,4α,5,6,7-hexahydrocyclopenta[f]indazol-5-yl]ethanol]	0.9
C[C@]12Cc3cnn(-c4ccc(F)cc4)c3C=C1CC[C@@]2(CO)CC(O)c1cccc(Cl)c1 (stereo partly drawn) [Example 8, 1-(3-chlorophenyl)-2-[(4αS,5R)-1-(4-fluorophenyl)-5-(hydroxymethyl)-4α-methyl-1,4,4α,5,6,7-hexahydrocyclopenta[f]indazol-5-yl]ethanol]	1.2
C[C@]12Cc3cnn(-c4ccc(F)cc4)c3C=C1CC[C@@]2(CO)CC(O)c1cc(F)cc(F)c1 (stereo partly drawn) [Example 9, 1-(3,5-difluorophenyl)-2-[(4αS,5R)-1-(4-fluorophenyl)-5-(hydroxymethyl)-4α-methyl-1,4,4α,5,6,7-hexahydrocyclopenta[f]indazol-5-yl]ethanol]	2.1
C[C@]12Cc3cnn(-c4ccc(F)cc4)c3C=C1CC[C@@]2(CO)CC1OC(=O)c2ccccc21 (stereo partly drawn) [Example 11, 3-{[(4αS,5R)-1-(4-fluorophenyl)-5-(hydroxymethyl)-4α-methyl-1,4,4α,5,6,7,7a,8-octahydrocyclopenta[f]indazol-5-yl]methyl}-2-benzofuran-1(3H)-one]	19.2
Cc1ccc(C(O)C[C@]2(CO)CCC3=Cc4c(cnn4-c4ccc(F)cc4)C[C@@]32C)nc1 (stereo partly drawn) [Example 16, 2-[(4αS,5R)-1-(4-fluorophenyl)-5-(hydroxymethyl)-4α-methyl-1,4,4α,5,6,7-hexahydrocyclopenta[f]indazol-5-yl]-1-(5-methylpyridin-2-yl)ethanol]	3.7

The next lines start with the values.

Ki [nM]	SMILES
13.9	C[C@]12Cc3cnn(-c4cccc(F)c4)c3C=C1CC[C@@]2(CO)CC(O)c1cccnc1 (single isomer, unassigned) [Example 27a]
13.4	C[C@]12Cc3cnn(-c4cccc(F)c4)c3C=C1CC[C@@]2(CO)CC(O)c1cccnc1 (single isomer, unassigned) [Example 27b]
8.3	C[C@]12Cc3cnn(-c4ccc(F)cc4)c3C=C1CC[C@@]2(CO)CC(O)C(F)(F)F (single isomer, unassigned) [Example 28a]
5.4	C[C@]12Cc3cnn(-c4ccc(F)cc4)c3C=C1CC[C@@]2(CO)CC(O)C(F)(F)F (single isomer, unassigned) [Example 28b]
11.8	C[C@]12Cc3cnn(-c4ccccc4)c3C=C1CC[C@@]2(CO)CC(O)c1cccnc1 (single isomer, unassigned) [Example 29a]
8.2	C[C@]12Cc3cnn(-c4ccccc4)c3C=C1CC[C@@]2(CO)CC(O)c1cccnc1 (single isomer, unassigned) [Example 29b]
